Key:
Format in all cases: cell-based
[1] = tested on: mouse embryonic motor neurons; assay: Stress-induced change of miRNA biogenesis in primary mouse motor neurons; conditions: 5 nM, 72 hrs
Method: (FIG. 7A) miRNA expression level analysis in the motor neuron cell line NSC-34, treated with 6.25 nM Thapsigargin for 24 hrs, relative to cells treated with carrier alone (DMSO). Shown are average and s.d. of qPCR analyses of 3 independent experiments. Pre-miRNAs (light grey, normalized to Gapdh) and miRNAs (dark grey, normalized to Snord68). (FIG. 7B) mRNA levels encoding for proteins involved in the canonical stress response, normalized to the expression of beta-actin. (FIG. 7C) miRNA expression level analysis in mouse embryonic motor neurons, treated with 5 nM Thapsigargin for 72 hrs, relative to cells treated with carrier alone (DMSO). Shown are average and s.d. of qPCR analyses of three independent experiments. Pre-miRNAs (light grey, normalized to Gapdh and beta actin) and miRNAs (dark grey, normalized to Snord70). (FIG. 7D) mRNA markers of the canonical stress response, normalized to the expression of beta-actin. miRNA expression level analysis in NSC-34 cells, treated with Paraquat (PQ) (1 mM, 12 hrs, FIG. 7E) and sodium arsenite (0.5 mM, 60 min, FIG. 7F). pre-miRNA normalized to beta-actin mRNA (FIGS. 7E-F) and miRNAs to 5S (FIG. 7E) or to U6 and 5S (FIG. 7F). (FIGS. 7G-I) miRNA expression level analysis in mouse embryonic Wild-type fibroblasts (light grey) or phospho-mutant eIF2a S51A cells (black) treated with Thapsigargin (5 nM, 72 hrs) relative to carrier alone. […]

[2] = tested on: mouse embryonic fibroblasts (MEFs); assay: pre-miRNA and miRNA levels in mouse embryonic fibroblasts under stress
Method: (§1) (FIG. 7A) miRNA expression level analysis in the motor neuron cell line NSC-34, treated with 6.25 nM Thapsigargin for 24 hrs, relative to cells treated with carrier alone (DMSO). Shown are average and s.d. of qPCR analyses of 3 independent experiments. Pre-miRNAs (light grey, normalized to Gapdh) and miRNAs (dark grey, normalized to Snord68). (FIG. 7B) mRNA levels encoding for proteins involved in the canonical stress response, normalized to the expression of beta-actin. (FIG. 7C) miRNA expression level analysis in mouse embryonic motor neurons, treated with 5 nM Thapsigargin for 72 hrs, relative to cells treated with carrier alone (DMSO). Shown are average and s.d. of qPCR analyses of three independent experiments. Pre-miRNAs (light grey, normalized to Gapdh and beta actin) and miRNAs (dark grey, normalized to Snord70). (FIG. 7D) mRNA markers of the canonical stress response, normalized to the expression of beta-actin. miRNA expression level analysis in NSC-34 cells, treated with Paraquat (PQ) (1 mM, 12 hrs, FIG. 7E) and sodium arsenite (0.5 mM, 60 min, FIG. 7F). pre-miRNA normalized to beta-actin mRNA (FIGS. 7E-F) and miRNAs to 5S (FIG. 7E) or to U6 and 5S (FIG. 7F). (FIGS. 7G-I) miRNA expression level analysis in mouse embryonic Wild-type fibroblasts (light grey) or phospho-mutant eIF2a S51A cells (black) treated with Thapsigargin (5 nM, 72 hrs) relative to carrier alone. Pre-miRNA (FIG. 7G) and mature miRNA (FIG. 7H) levels normalized to Gapdh and Snord68, respectively. (FIG. 7I) ATF4, which is induced by phosphorylation of eIF2a, was not induced in phospho-mutant eIF2a S51A cells. Significance of p-values from ANOVA tests is indicated by *p<0.05; **p<0.01. (FIGS. 7J-K) Western-Blot analysis of lysates from untreated NSC-34 cells (control) or cells treated with sodium arsenite (0.5 mM, 60 min). Phospho-specific immunodetection of eIF2a S51 phosphorylation (peIF2a) and total eIF2a levels (FIG. 7J), Dicer and Ago2 levels (FIG. 7K). (FIG. 7L) miRNA expression level analysis in mouse embryonic fibroblasts treated with Puromycin (1 μg/ml, 24 hrs), relative to cells treated with carrier alone (water). Pre-miRNAs (light grey, normalized to Gapdh) and miRNAs (dark grey, normalized to Snord68).
(FIG. 9A) The ratio of pre-miRNA to mature miRNA levels in NSC-34 cells, transfected with plasmids as indicated and in cells treated for 72 hrs with carrier alone (water, black) or with cycloheximide (CHX, 0.02 μg/ml, gray). Data normalized to control plasmid transfection. Pre-miRNAs further normalized to Gapdh (for FUS R495X, TDP-43 A315T) or to beta-actin (SOD1 G93A) and miRNA levels normalized to Snord68. Average of three independent experiments except for pre-miRNAs in the study of FUS R495X (n=2). Targeted quantitative mass spectrometry analysis of changes in the binding of Ago2 or Dicer to a set of proteins interactors under stress (FIGS. 9B-E). Immunoprecipitated Ago2-Flag (FIG. 9B) or Dicer-Flag (FIG. 9C) from HEK 293 cells, cultured under basal conditions or treated with sodium arsenite (0.5 mM, 60 min) was subjected to targeted mass-spectrometry analysis. Data is averaged from two or three different peptide standards per protein and normalized to the levels of co-immunoprecipiated peptides from untreated cells. Statistically significant result in a student t-test, between arsenite and control treatment is denoted (*p<0.05). Targeted mass spectrometry of (FIG. 9D) Dicer cofactors or (FIG. 9E) SG components, immunoprecipitated with AGO-Flag in FUS R495X-expressing HEK 293 that were further treated for 72 hrs with carrier alone or Cycloheximide (0.02 μg/ml). (FIG. 9F) The ratio of pre-miRNA to mature miRNA levels in mouse embryonic fibroblasts, pretreated for 5 hrs with HSP90 inhibitors (17-AAG, 1 μM or Geldanamycin, 1 μM) and then incubated for 36 more hours with Thapsigargin (5 nM) in combinations with the respective HSP90 inhibitor. […]

NSC-34 cells = assay: Stress-induced change of pre-miRNA processing in NSC-34 cells (qPCR)
Method: as §1
RNA was extracted using Tri reagent (Molecular Research Center Inc.) or Qiazol with consecutive use of the miRNeasy Mini Kit (Qiagen). Pre-miRNA and miRNA reverse transcription was performed using miScript Kits No. I & II (Qiagen). Quantitative analysis of miRNA and pre-miRNA expression performed in more than 3 independent biological repeats and additionally in technical duplicates with StepOnePlus quantitative Real-Time PCR System and 2-sided ANOVA-test performed with DataAssist Software (Life technologies Inc.). Next-generation sequencing of mouse precursor miRNAs and mature miRNAs was performed on two independent experimental repeats, as described in Newman et al. [Newman et al. (2011) RNA 17(10): 1795-1803]. miRNAs were normalized to spiked-in controls and pre-miRNAs were normalized to Snord72 and Snord95.
Stress and cytoplasmic stress granules (SGs) emerge as major pathogenic mechanisms of ALS [Kim et al. (2014) Nat Genet 46(2): 152-160]. Stress pathways are thought to control miRNA activity [Etude and Hornstein, EMBO J. (2014) July 1; 33(13):1428-37], but the idea that cellular stress might broadly regulate miRNA biogenesis was not yet tested. This hypothesis was tested herein by measurement of the relative expression levels of mature miRNAs and their precursors, pre-miRNAs, which provides a proxy for the efficacy of Dicer complex activity. […] Two other chemicals were tested that drive oxidative stress, namely Paraquat (PQ, 12 hrs, 1 mM) and sodium arsenite (1 hr, 0.5 mM). […] Therefore, several different cellular stress pathways negatively regulate miRNA biogenesis.

C/C=C(/C)C(=O)O[C@H]1C(C)=C2[C@H]([C@@H]1OC(=O)CCCCCCC)[C@@](C)(OC(C)=O)C[C@H](OC(=O)CCC)[C@@]1(O)[C@H]2OC(=O)[C@@]1(C)O [Thapsigargin]
markers of ER-stress [1]: up-regulated markers of ER-stress | miRNA biogenesis [1]: affected miRNA biogenesis | ATF4 mRNA levels ([2]; eIF2a S51A MEFs, 5 nM, 72 hrs): failed to upregulate ATF4 mRNA levels | Dicer inhibition (pre-miRNA and mature miRNA levels) ([2]; eIF2a S51A MEFs, 5 nM, 72 hrs): partial recovery from Thapsigargin-induced Dicer inhibition | mature miRNA species ([2]; wild-type MEFs, 5 nM, 72 hrs): relative depletion of the corresponding mature miRNA species | pre-miRNAs ([2]; wild-type MEFs, 5 nM, 72 hrs): accumulation of pre-miRNAs | RNA markers of ER-stress: ASNS, ATF4, CHOP and GRP78 (NSC-34 cells; 6.25 nM, 24 hrs): up-regulation of RNA markers of ER-stress | mature miRNAs levels (NSC-34 cells; 6.25 nM, 24 hrs): down-regulate mature miRNAs levels | miRNA precursors levels (NSC-34 cells; 6.25 nM, 24 hrs): up-regulate miRNA precursors levels

C=CCNC1=C2C[C@@H](C)C[C@H](OC)[C@H](O)[C@@H](C)/C=C(\C)[C@H](OC(N)=O)[C@@H](OC)/C=C\C=C(/C)C(=O)NC(=CC1=O)C2=O [17-AAG]
Thapsigargin-induced inhibition of miRNA biogenesis (ratio of pre-miRNA to mature miRNA) ([2]; HSP90 inhibitor 1 μM, 5 hrs pretreatment, then 36 hrs with Thapsigargin 5 nM): aggravated Thapsigargin-induced inhibition of miRNA biogenesis

C[n+]1ccc(-c2cc[n+](C)cc2)cc1 [Paraquat]
mature miRNAs (NSC-34 cells; PQ, 12 hrs, 1 mM): down-regulation of mature miRNAs | pre-miRNA levels (NSC-34 cells; PQ, 12 hrs, 1 mM): up-regulation of pre-miRNA levels

COc1ccc(C[C@H](N)C(=O)N[C@H]2[C@@H](O)[C@H](n3cnc4c(N(C)C)ncnc43)O[C@@H]2CO)cc1 [Puromycin]
efficacy of pre-miRNA biogenesis ([2]; 1 μg/ml, 24 hrs): decreased the efficacy of pre-miRNA biogenesis

Source: patent US10159670B2, “Methods of diagnosing and treating motor neuron diseases and other cellular stress-related diseases” (priority 2012, dated 2018)
